Reference: patent publication US20110318298A1, “VIRAL INFECTION THERAPEUTIC DRUG CONTAINING POLYALKYLENEIMINE” (Nippon Shokubai Co., Ltd., priority 2008, published 2011)
Values after ≈ are worked out from the molar mass of the structure shown. Read-outs that look alike come from different tables or passages of the source.

Tests used:
[1] = in vitro; conditions: African green monkey
Description: (§1) A test for evaluation of the cytotoxicity of polyethyleneimine in each cell was carried out according to the following procedure.
(§2) The cell proliferation count was then measured by trypan blue staining.

[2] = tested on: HSV-2; experiment: Inhibitory effect on HSV-2 virus adsorption to the cells (Vero cells, 4° C.); conditions: for Amount of virus adsorbed to host cells: Vero cells, 4° C. one hour, control = 100%
[3] = tested on: HSV-2; experiment: Comparison of SP-012 and acyclovir in HSV-2-infected mice (Example 9); conditions: for Number of death/total number: 0.2 mg per administration to the genital until seven days after infection, 15 days observation; for Number of HSV-2 positive mouse/total number: genital wash, first day to 12 days after infection
Description: Five to six-week-old female BALB/c mice were locally (genital) inoculated with HSV-2 in an amount of 20 μl (containing a reduced viral amount of 1×10^4 PFU per mouse in consideration of tracing also untreated control mice). […] From the first day to 12 days after the viral infection, the genital was washed with phosphate-buffered physiological saline every day, and the amount of virus therein was measured in each mouse. Also, for 15 days, the severity of the development of the disease and the case of death were recorded.

[4] = tested on: HSV-2; experiment: Anti-viral activity on HSV-2, plaque assaying in Vero cells; conditions: Human alphaherpesvirus 2, Vero
[5] = tested on: HSV-2; experiment: Inhibitory effect on HSV-2 virus invasion of the cells (Vero cells, 37° C.); assay type: cell-based, herpes simplex virus type 2; conditions: for Amount of virus invaded in 30 minutes / Amount of virus invaded in 3 hours: Vero cells, 37° C., control = 100%
Description: Subsequently, the inhibitory effect of polyethyleneimine in the stage in which HSV-2 adsorbed to the host cells invades the cells was investigated.

[6] = tested on: MDCK cells; experiment: Cytotoxicity (CC50), cell count by trypan blue staining, MDCK cells; assay type: cell-based, dog
[7] = tested on: Vero cells
Description: as §1, §2

Nc1nc2c(ncn2COCCO)c(=O)[nH]1 [Acyclovir, acyclovir]
CC50 at 72 h [1]: 890 µg/mL (≈ 3950 µM) | Amount of virus adsorbed to host cells ([2]; 100 μg/ml): 76% | Amount of virus adsorbed to host cells ([2]; 1000 μg/ml): Toxic | Amount of virus adsorbed to host cells ([2]; 10000 μg/ml): Toxic | Inhibition of viral adsorption, overall finding ([2]; over the tested concentrations): almost no dose-dependent adsorption-inhibitory effect | Number of death/total number [3]: 0/10 | Number of death/total number ([3]; listed as acyclovir): No mice died | Development of the disease (genital inflammation) ([3]; 0.2 mg per administration, 10 mice): transient inflammation | Number of HSV-2 positive mouse/total number ([3]; 0.2 mg per administration): 1/10 | Number of HSV-2 positive mouse/total number ([3]; 0.2 mg per administration, listed as acyclovir): the virus was detected in one out of 10 mice | IC50 ([4]; read-out: Anti-viral activity (IC50) A): 0.91 µg/mL (≈ 4.04 µM) | IC50 ([4]; read-out: Anti-viral activity (IC50) B): 0.92 µg/mL (≈ 4.09 µM) | Amount of virus invaded in 30 minutes ([5]; 1 μg/ml): 99% | Amount of virus invaded in 30 minutes ([5]; 10 μg/ml): 94% | Amount of virus invaded in 30 minutes ([5]; 100 μg/ml): 87% | Amount of virus invaded in 3 hours ([5]; 100 μg/ml): 89% | Amount of virus invaded in 30 minutes ([5]; 1000 μg/ml): 68% | Amount of virus invaded in 3 hours ([5]; 1000 μg/ml): Toxic | Amount of virus invaded in 30 minutes ([5]; 10000 μg/ml): Toxic | Amount of virus invaded in 3 hours ([5]; 10000 μg/ml): Toxic | Inhibition of viral invasion, overall finding ([5]; over the tested concentrations): did not inhibit HSV-2 virus invasion of the cells

polyethyleneimine [SP-018]
Cytotoxicity (CC50) [6]: 0.064 μl/ml | Cytotoxicity (CC50) [7]: 0.057 μl/ml

polyethyleneimine [SP-003]
Cytotoxicity (CC50) [6]: 0.057 μl/ml | Cytotoxicity (CC50) [7]: 0.071 μl/ml

polyethyleneimine [SP-012]
Cytotoxicity (CC50) [6]: 0.34 μl/ml

polyethyleneimine [SP-006]
Cytotoxicity (CC50) [6]: 0.57 μl/ml | Cytotoxicity (CC50) [7]: 1.1 μl/ml

polyethyleneimine [P-1000]
Cytotoxicity (CC50) [7]: 0.0044 μl/ml

polyethyleneimine [SP-200]
Cytotoxicity (CC50) [7]: 0.0045 µg/mL
